Reference: ChEMBL document CHEMBL1201862, “PubChem BioAssay data set” (2004)
Active and inactive are the calls of the source.

Assays:
[1] = biological target: Peroxisome proliferator-activated receptor gamma/Nuclear receptor coactivator 2 (Homo sapiens, UniProt P37231); format: functional;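 note: agonist potency for raising coactivator recruitment to the receptor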
[2] = biological target: Peroxisome proliferator-activated receptor gamma/Nuclear receptor coactivator 1 (Homo sapiens, UniProt P37231); format: functional;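 note: agonist potency as compounds enhance coactivator SRC-1 recruitment to PPARgamma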
Chain of Peroxisome proliferator-activated receptor gamma/Nuclear receptor coactivator 1 (P37231 whole entry): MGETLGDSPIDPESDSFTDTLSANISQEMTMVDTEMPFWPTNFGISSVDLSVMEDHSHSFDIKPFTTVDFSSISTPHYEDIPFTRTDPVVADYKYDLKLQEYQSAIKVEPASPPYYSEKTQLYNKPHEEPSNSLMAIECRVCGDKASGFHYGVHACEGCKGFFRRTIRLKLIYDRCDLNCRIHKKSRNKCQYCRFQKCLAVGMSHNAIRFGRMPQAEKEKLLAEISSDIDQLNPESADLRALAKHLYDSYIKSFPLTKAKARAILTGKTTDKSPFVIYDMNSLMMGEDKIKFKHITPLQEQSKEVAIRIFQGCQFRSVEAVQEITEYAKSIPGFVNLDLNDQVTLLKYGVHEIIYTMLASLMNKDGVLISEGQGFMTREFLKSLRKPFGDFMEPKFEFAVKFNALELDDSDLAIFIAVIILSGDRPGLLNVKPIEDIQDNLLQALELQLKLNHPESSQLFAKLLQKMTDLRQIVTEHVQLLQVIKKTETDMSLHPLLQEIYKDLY
Chain of Peroxisome proliferator-activated receptor gamma/Nuclear receptor coactivator 1 (Q15788 whole entry, further chain): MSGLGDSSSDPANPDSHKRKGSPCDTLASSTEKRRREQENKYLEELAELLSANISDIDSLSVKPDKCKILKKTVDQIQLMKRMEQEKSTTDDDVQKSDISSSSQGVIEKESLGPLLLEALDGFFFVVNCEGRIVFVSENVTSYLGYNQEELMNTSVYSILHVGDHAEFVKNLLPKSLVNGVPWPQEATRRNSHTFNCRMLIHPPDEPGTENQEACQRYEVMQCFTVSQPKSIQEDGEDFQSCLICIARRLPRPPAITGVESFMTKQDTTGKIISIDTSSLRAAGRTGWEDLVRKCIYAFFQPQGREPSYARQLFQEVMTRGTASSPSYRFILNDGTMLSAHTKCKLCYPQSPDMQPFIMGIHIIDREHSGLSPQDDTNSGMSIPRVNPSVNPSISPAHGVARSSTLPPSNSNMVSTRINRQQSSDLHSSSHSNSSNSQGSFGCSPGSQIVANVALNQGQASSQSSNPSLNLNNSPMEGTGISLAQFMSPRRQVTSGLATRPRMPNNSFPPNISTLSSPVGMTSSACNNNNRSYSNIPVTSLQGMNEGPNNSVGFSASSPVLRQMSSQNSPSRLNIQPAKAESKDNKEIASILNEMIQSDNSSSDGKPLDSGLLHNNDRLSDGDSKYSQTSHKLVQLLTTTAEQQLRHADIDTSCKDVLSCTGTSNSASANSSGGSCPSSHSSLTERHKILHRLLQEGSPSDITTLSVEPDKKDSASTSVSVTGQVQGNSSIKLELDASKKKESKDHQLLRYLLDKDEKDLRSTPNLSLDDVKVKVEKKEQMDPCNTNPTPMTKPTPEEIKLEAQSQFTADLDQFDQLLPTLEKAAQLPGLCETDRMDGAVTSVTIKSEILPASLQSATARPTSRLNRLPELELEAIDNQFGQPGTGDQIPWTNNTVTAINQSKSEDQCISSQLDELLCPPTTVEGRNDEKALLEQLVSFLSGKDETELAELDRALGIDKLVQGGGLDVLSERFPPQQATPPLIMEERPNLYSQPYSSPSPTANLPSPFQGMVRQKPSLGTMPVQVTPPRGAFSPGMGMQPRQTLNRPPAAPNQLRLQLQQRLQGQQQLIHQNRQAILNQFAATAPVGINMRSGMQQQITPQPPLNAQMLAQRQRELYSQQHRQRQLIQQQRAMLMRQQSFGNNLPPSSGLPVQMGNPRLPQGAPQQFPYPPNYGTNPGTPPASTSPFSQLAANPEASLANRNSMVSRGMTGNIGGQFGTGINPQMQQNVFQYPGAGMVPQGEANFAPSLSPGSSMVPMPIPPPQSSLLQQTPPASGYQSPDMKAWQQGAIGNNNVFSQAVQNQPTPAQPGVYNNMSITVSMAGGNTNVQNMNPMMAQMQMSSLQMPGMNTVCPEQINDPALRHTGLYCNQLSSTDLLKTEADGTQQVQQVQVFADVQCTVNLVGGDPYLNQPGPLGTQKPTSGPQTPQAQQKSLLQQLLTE

[3] = biological target: Peroxisome proliferator-activated receptor gamma/Nuclear receptor coactivator 3 (Homo sapiens, UniProt P37231); format: functional;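 note: agonist potency for raising coactivator recruitment to the receptor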
Chain of Peroxisome proliferator-activated receptor gamma/Nuclear receptor coactivator 3 (P37231 whole entry): as the sequence (P37231 whole entry) above
Chain of Peroxisome proliferator-activated receptor gamma/Nuclear receptor coactivator 3 (Q9Y6Q9 whole entry, further chain): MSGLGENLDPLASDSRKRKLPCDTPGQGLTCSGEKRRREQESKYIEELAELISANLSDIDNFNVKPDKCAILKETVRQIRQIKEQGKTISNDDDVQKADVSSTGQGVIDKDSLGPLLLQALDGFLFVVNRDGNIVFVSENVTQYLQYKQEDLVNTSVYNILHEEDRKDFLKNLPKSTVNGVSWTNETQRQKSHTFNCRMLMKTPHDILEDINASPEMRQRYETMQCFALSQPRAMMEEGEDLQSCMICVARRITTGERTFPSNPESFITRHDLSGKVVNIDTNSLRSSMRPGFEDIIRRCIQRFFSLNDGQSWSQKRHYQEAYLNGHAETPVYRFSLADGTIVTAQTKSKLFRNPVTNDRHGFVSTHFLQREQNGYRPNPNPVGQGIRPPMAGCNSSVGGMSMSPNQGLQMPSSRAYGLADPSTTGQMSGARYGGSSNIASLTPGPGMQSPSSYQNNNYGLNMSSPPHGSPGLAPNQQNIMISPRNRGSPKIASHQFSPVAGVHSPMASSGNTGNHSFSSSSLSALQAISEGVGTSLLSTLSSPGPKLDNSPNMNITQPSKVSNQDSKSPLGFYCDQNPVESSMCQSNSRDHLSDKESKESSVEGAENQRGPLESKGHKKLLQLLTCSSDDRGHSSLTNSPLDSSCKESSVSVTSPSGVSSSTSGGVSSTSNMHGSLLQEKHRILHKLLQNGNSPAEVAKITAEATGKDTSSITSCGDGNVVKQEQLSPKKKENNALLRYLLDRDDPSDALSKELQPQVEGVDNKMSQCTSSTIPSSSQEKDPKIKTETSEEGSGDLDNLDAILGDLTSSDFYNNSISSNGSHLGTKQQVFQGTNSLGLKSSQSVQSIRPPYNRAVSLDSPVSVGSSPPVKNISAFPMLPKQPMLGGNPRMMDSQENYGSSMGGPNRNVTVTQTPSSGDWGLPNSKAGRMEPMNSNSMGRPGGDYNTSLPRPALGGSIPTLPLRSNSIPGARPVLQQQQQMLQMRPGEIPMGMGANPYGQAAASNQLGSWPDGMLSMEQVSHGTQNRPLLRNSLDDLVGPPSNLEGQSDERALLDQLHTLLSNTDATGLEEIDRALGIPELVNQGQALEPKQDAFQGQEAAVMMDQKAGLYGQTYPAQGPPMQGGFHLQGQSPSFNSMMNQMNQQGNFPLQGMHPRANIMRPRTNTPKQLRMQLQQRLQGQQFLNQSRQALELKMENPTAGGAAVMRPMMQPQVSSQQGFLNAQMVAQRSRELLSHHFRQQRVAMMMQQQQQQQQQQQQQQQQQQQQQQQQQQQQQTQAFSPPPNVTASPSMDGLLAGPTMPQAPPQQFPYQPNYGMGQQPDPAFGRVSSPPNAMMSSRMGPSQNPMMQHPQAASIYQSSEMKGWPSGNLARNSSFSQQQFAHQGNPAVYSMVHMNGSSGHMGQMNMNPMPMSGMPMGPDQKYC

[4] = biological target: T1, Estrogen receptor (Homo sapiens, UniProt P03372);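 note: potency for inhibiting coactivator peptide recruitment to the receptor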
T1 sequence (P03372 whole entry): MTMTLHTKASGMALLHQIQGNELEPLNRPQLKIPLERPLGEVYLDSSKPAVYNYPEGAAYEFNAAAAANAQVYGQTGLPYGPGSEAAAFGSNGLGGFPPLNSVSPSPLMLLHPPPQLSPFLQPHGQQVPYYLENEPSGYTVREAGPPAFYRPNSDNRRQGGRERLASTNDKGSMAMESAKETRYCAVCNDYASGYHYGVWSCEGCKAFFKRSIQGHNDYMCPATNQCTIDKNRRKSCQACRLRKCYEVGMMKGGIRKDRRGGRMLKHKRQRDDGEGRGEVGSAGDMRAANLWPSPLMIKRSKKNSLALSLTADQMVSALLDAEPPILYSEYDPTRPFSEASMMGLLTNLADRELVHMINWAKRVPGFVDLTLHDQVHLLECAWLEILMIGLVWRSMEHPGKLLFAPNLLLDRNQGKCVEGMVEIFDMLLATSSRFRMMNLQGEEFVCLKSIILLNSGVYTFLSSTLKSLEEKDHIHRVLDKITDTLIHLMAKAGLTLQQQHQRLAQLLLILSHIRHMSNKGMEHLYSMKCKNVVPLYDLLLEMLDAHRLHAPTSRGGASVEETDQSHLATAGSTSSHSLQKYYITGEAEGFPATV

[5] = biological target: T2, Protein Tat (Human immunodeficiency virus type 1 group M subtype B (isolate HXB2)(HIV-1), UniProt P04608); format: functional;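 note: tat binding to TAR RNA read out by fluorescence polarization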
T2 sequence (P04608 whole entry): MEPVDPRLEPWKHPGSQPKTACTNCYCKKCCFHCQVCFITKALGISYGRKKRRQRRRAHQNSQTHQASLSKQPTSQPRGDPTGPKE

[6] = biological target: T3, Long-chain-fatty-acid--AMP ligase FadD28 (Mycobacterium tuberculosis, UniProt P9WQ59); assay: Fluorescence polarization aasay to screen for inhibitors that compete for the binding of FadD28 to a bisubstrate Measured in Biochemical System Using Plate Reader - 2147-01_Inhibitor_Dose_CherryPick_Activity.; format: functional, Mycobacterium tuberculosis H37Rv
T3 sequence (P9WQ59 whole entry): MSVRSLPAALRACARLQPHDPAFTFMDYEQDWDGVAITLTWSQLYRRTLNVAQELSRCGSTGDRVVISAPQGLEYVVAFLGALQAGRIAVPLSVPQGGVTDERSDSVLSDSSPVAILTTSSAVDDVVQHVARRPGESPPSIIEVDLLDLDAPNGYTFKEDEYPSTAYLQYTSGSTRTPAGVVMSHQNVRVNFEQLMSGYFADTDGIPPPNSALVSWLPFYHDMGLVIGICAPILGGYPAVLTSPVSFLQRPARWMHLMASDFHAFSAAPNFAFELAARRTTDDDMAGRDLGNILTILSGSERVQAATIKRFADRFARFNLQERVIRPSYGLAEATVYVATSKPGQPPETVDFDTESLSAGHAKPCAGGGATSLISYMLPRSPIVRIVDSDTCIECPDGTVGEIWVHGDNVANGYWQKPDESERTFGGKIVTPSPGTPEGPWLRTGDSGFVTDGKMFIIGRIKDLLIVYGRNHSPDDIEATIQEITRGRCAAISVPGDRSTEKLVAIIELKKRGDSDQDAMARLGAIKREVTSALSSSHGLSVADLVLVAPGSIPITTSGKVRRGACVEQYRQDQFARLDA

[7] = biological target: T4, Heat shock factor protein 1 (Mus musculus, UniProt P38532); assay: decrease of HSF1-responsive luciferase luminescence – cell-based, NIH3T3, dose retest, confirmation (AID 2382); format: functional;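 note: NIH3T3 fibroblasts with HSF1-driven luciferase reporter stressed by proteasome inhibitor MG132; luminescence from HSF1-driven luciferase expression after 8 hours of MG132 stress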
T4 sequence (P38532 whole entry): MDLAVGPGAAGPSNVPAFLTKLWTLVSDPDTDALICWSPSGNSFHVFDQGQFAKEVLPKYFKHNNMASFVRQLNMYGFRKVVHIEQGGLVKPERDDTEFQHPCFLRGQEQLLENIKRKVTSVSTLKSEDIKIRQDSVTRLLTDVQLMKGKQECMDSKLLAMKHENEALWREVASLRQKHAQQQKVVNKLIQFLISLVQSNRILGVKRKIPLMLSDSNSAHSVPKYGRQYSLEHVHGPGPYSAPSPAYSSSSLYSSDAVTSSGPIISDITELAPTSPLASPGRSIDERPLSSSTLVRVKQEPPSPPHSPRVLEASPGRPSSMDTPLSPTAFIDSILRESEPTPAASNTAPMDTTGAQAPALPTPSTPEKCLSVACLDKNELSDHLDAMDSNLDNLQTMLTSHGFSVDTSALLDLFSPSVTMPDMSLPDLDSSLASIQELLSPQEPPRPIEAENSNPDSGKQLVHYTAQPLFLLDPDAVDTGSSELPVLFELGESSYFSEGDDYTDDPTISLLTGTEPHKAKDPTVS

[8] = biological target: T4, Heat shock factor protein 1; assay: enhancement of HSF1-driven luciferase signal – cell-based, NIH3T3, luminescence, dose retest, confirmation (AID 435004); format: functional;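 note: stress induced by proteasome inhibitor MG132 added 30 min after compound; luciferase reporter driven by HSF1 response element in NIH3T3 cells; actives raise luminescence as potentiators of the MG132 stress response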
[9] = reduction of Shn3 3'UTR-driven luciferase in osteoblasts – cell-based, Clone20 osteoblasts, firefly luciferase, cherry-picked, dose response (AID 624132); format: functional;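 note: firefly luciferase luminescence from reporter carrying the Shn3 3'UTR in osteoblasts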
[10] = loss of viability in HepG2 cells – cell-based, CellTiter-Glo, cherry-picked, cytotoxicity control for Shn3 inhibitor project, dose response (AID 624134); format: functional
[11] = non-specific 3'UTR reporter inhibition in Clone20-Shn3RL – cell-based, Renilla luciferase, cherry-picked, counter-screen for Shn3 inhibitor project, dose response (AID 624133); format: functional
[12] = reduced cellular PGC1a acetyl-lysine signal – cell-based, cherry-picked samples, dose response (AID 720514); format: functional;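 note: potency may reflect raised or lowered acetylation signal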
[13] = biological target: Large T antigen (Simian virus 40, UniProt P03070); format: functional, Betapolyomavirus macacae;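 note: Confirmatory-stage PubChem screen for compounds that inhibit SV40 T antigen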
Chain of Large T antigen (P03070 whole entry): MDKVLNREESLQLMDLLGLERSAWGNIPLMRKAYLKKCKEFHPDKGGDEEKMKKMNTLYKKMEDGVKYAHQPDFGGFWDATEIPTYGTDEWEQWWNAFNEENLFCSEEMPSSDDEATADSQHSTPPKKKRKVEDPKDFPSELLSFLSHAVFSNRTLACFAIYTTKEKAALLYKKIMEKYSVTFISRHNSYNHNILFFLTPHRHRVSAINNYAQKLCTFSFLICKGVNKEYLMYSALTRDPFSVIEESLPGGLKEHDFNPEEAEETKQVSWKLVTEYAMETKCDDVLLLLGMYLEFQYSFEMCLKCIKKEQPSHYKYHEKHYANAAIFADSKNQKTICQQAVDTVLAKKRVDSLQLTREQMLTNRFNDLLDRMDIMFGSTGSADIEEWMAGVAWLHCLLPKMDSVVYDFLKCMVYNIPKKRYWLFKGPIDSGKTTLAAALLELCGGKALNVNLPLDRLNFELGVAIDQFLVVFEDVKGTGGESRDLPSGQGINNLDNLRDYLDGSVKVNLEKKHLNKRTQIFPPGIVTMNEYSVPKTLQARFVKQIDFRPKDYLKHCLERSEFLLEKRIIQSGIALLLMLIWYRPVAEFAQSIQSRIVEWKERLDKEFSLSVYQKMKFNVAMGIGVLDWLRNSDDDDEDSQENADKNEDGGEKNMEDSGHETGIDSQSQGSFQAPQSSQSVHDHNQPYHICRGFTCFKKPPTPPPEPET

[14] = A549 cell cytotoxicity, dose response, cytotoxicity control, plate reader, cherry-pick, antagonist series (AID 743412); format: functional, cell-based

## N#Cc1c(N)nc(SCC(=O)NC2CCCCC2)c(C#N)c1-c1ccc(Cl)cc1
[1]
  EC50: 21.9 µM (not active)
[2]
  EC50: 34.6 µM (not active)
[3]
  EC50: 37.1 µM (not active)

## COc1ccccc1C(=O)Nc1nc(-c2cccs2)c(NC(C)=O)s1
[4]
  IC50: 19 µM (active)

## CCOC(=O)/C=C1\SCC(=O)N1CC(=O)NC(C)c1ccc(F)cc1 (configuration not stated)
[5]
  IC50: > 100 µM (active)

## Fc1ccc(-c2nnc(-n3nnc4ccccc43)c3ccccc23)cc1
[4]
  IC50: 26.3 µM (active)

## Nc1nc(-c2cccs2)c(-c2cccs2)s1
[6]
  AC50: > 100 µM (inactive)

## N#Cc1c(NC(=O)CSc2ncccn2)oc(-c2ccccc2)c1-c1ccccc1
[7]
  EC50: 9.25 µM (active)
[4]
  IC50: 9.58 µM (active)

## Fc1ccc(/C=C2\CCCC3=C2Nc2ncnn2C3c2ccc(F)cc2)cc1 (configuration not stated)
[8]
  EC50: 20.7 µM (active)
[9]
  AC50: 8.47 µM (active)
[10]
  AC50: 37.9 µM (active)
[11]
  AC50: 11.3 µM (active)
[12]
  AC50: 9.46 µM (active)

## CCC(C)(C)n1nnnc1C(c1ccc2ncccc2c1)N1CCN(c2ccc(O)cc2)CC1 (configuration not stated)
[13]
  IC50: 34.6 µM (active)
[5]
  IC50: > 100 µM (active)

## CCC(=O)N(C)C[C@H]1Oc2cc(C#CCC(C)C)ccc2S(=O)(=O)N([C@H](C)CO)C[C@@H]1C
[14]
  AC50: 32.1 µM (active)
